The text below walks through data of US11970480.

Like-named read-outs stand apart in the source and are kept apart here.

For data set [1] the following is noted: 21-membered ring.
The conditions of data set [2]: from 5,5′-(propane-1,3-diylbis(oxy))bis(4-chloro-3-nitrobenzamide) + butane-1,4-diamine; snar bond; 15-membered ring; DIEA; DMSO; 714.0 mM; 120.0 °C; 2 steps.
The conditions of data set [3]: amide bond, 2 steps.

`CCn1nc(C)c2c1C(=O)Nc1nc3cc(C(N)=O)ccc3n1CC=CCn1c(nc3cc(C(N)=O)ccc31)NC(=O)c1cc(C)nn1CCCCC2` came in with a ring closure, yield of all isomers (from C=CCn1c(NC(=O)c2cc(C)nn2CCCCCc2c(C)nn(CC)c2C(=O)Nc2nc3cc(C(N)=O)ccc3n2CC=C)nc2cc(C(N)=O)ccc21, rcm bond, Hoveyda-Grubbs II, 1,2-dichloroethane, 2.69 mM, 100.0 °C, 4.0 h) of 35%. Besides, the ring closure, isolated yield in data set [1] (from C=CCn1c(NC(=O)c2cc(C)nn2CCCCCc2c(C)nn(CC)c2C(=O)Nc2nc3cc(C(N)=O)ccc3n2CC=C)nc2cc(C(N)=O)ccc21, rcm bond, Hoveyda-Grubbs II (20 mol%), DCE, 2.69 mM, 100.0 °C) was found to be 35%. Under “from CCn1nc(C)c(CCCCCn2nc(C)cc2C(=O)Nc2nc3c(CNC(=O)OC(C)(C)C)cccc3n2CCCCn2c(N)nc3cc(C(N)=O)ccc32)c1C(=O)O, amide bond, EDC/HOBt, DIEA, cat. DMAP, DMF, 18.2 mM, 60.0 °C, 6.0 h”, `CCn1nc(C)c2c1C(=O)Nc1nc3cc(C(N)=O)ccc3n1CCCCn1c(nc3c(CNC(=O)OC(C)(C)C)cccc31)NC(=O)c1cc(C)nn1CCCCC2` yielded a ring closure, yield of all isomers of 56%. For the same compound, the ring closure, isolated yield in data set [1] (from CCn1nc(C)c(CCCCCn2nc(C)cc2C(=O)Nc2nc3c(CNC(=O)OC(C)(C)C)cccc3n2CCCCn2c(N)nc3cc(C(N)=O)ccc32)c1C(=O)O, amide bond, EDC/HOBt/DIEA/DMAP, DMF, 18.2 mM, 60.0 °C) turned out to be 56%. `CCn1nc(C)c2c1C(=O)Nc1nc3cc(C(N)=O)ccc3n1CCCCn1c(nc3c(N(C)Cc4ccc(OC)cc4)cccc31)NC(=O)c1cc(C)nn1CCCCC2`: the ring closure, yield of all isomers (from CCn1nc(C)c(CCCCCn2nc(C)cc2C(=O)Nc2nc3c(N(C)Cc4ccc(OC)cc4)cccc3n2CCCCn2c(N)nc3cc(C(N)=O)ccc32)c1C(=O)O, amide bond, EDC/HOBt/DMAP, DMF, 23.7 mM, 60.0 °C, 32.0 h) turned out to be 20.4%. The compound also showed a ring closure, isolated yield in data set [1] (from CCn1nc(C)c(CCCCCn2nc(C)cc2C(=O)Nc2nc3c(N(C)Cc4ccc(OC)cc4)cccc3n2CCCCn2c(N)nc3cc(C(N)=O)ccc32)c1C(=O)O, amide bond, EDC/HOBt/DMAP, DMF, 23.7 mM, 60.0 °C) of 20.4%.

Consider `NC(=O)c1cc2c(c([N+](=O)[O-])c1)NCCCCNc1c(cc(C(N)=O)cc1[N+](=O)[O-])OCCCO2`, for which the ring closure, crude yield in data set [2] amounted to 90%. Consider “2-amino-1-(3-(3-(2-(2-amino-5-carbamoyl-1H-benzo[d]imidazol-1-yl)ethyl)phenyl)-propyl)-1H-benzo[d]imidazole-5-carboxamide + 4-(5-(5-carboxy-3-methyl-1H-pyrazol-1-yl)pentyl)-1-ethyl-3-methyl-1H-pyrazole-5-carboxylic acid”, for which the ring closure, yield after HPLC in data set [3] (the molecule shown is the open-chain precursor, 25-membered ring, HATU, NMP, 40.3 mM, 40.0 °C) was 0.6%. For “8-Ethyl-10,13,13,18-tetramethyl-7,20-dioxo-6,7,8,11,12,13,14,15,20,21,28,29,30,31-tetradecahydrobenzo[4,5]imidazo[1,2-a]benzo[4,5]imidazo[2,1-p]dipyrazolo[5,1-e:4′,3′-1][1,3,6,15,17]pentaazacyclohenicosine-3,24-dicarboxamide”, the ring closure, yield after HPLC in data set [3] (21-membered ring, HATU, NMP, 51.0 mM, 40.0 °C) was found to be 3.4%. Take “8-Ethyl-10,17-dimethyl-7,19-dioxo-7,8,11,12,13,14,19,20,27,28,29,30-dodecahydro-6H-benzo[4,5]imidazo[1,2-a]benzo[4,5]imidazo[2,1-o]dipyrazolo[5,1-e:4′,3′-k][1,3,6,14,16]pentaazacycloicosine-3,23-dicarboxamide”: the ring closure, yield after HPLC in data set [3] (20-membered ring, HATU/DIEA, NMP, 61.5 mM, 120.0 °C) worked out at 2%. In turn, “8-Ethyl-10,18-dimethyl-7,20-dioxo-6,7,8,11,14,15,20,21,28,29,30,31-dodecahydrobenzo[4,5]imidazo[1,2-a]benzo[4,5]imidazo[2,1-p]dipyrazolo[5,1-e:4′,3′-1][1,3,6,15,17]pentaazacyclohenicosine-3,24-dicarboxamide” showed a ring closure, yield after HPLC in data set [3] (21-membered ring, HATU/DIEA, NMP, 92.4 mM, 80.0 °C) of 1.7%. Turning to “8-ethyl-10,18,30-trimethyl-7,20-dioxo-7,8,11,12,13,14,15,20,21,28,29,30,31,32-tetradecahydro-benzo[4,5]imidazo[2,1-b]benzo[4,5]imidazo[1,2-l]dipyrazolo[5,1-m:4′,3′-t][1,3,6,9,11,14]hexaazacyclodocosine-3,24-dicarboxamide”, in data set [3] (22-membered ring, HATU/DIEA, NMP, 68.9 mM, 140.0 °C), the ring closure, yield after HPLC worked out at 4.56%. As to “(1r,39r)-14-ethyl-16,25-dimethyl-12,28-dioxo-2,9,11,14,15,23,24,29,31,38-decaazaoctacyclo[37.2.2.0^2,^1^0.0^3,^8.0^13,^1^7.0^23,^2^7.0^3^0,^3^8.0^32,^3^7]tritetraconta-3,5,7,9,13(17),15,24,26,30,32,34,36-dodecaene-6,34-Dicarboxamide”, the ring closure, isolated yield in data set [1] (amide bond, HATU/DIEA, DMF, 116.0 mM, 80.0 °C, 2 steps) was 0.3%. “(E)-1,26-Dibromo-8-ethyl-10,18-dimethyl-7,20-dioxo-6,7,8,11,12,13,14,15,20,21,28,31-dodecahydrobenzo[4,5]imidazo[1,2-a]benzo[4,5]imidazo[2,1-p]dipyrazolo[5,1-e:4′,3′-1][1,3,6,15,17]pentaazacyclohenicosine-3,24-dicarboxamide” yielded a ring closure, isolated yield in data set [1] (amide bond, HATU/DIEA, DMF, 59.3 mM, 90.0 °C, 2 steps) of 24%. For “(E)-8-Ethyl-1,26-dimethoxy-10,18-dimethyl-7,20-dioxo-6,7,8,11,12,13,14,15,20,21,28,31-dodecahydrobenzo[4,5]imidazo[1,2-a]benzo[4,5]imidazo[2,1-p]dipyrazolo[5,1-e:4′,3′-1][1,3,6,15,17]pentaazacyclohenicosine-3,24-dicarboxamide, bis trifluoroacetic acid salt”, the ring closure, yield after HPLC in data set [3] (21-membered ring, HATU/TEA, DMF, 24.4 mM, 100.0 °C) was 1%.
